SMILES strings stand for the structures.

The target in one assay is Vasopressin V2 receptor (Rattus norvegicus, UniProt Q00788). Briefly: Vasopressin V2 receptor antagonistic activity in vivo in anesthetized rats. Format: functional, organism-based. As to conditions: read-out: pA2 (converted).
In the next assay the target is Vasopressin V1 receptor (Rattus norvegicus, UniProt P48974+P30560). Briefly: pA2 value was determined for Vasopressin V1 receptor antagonistic activity in vivo in anesthetized rats. Format: functional, organism-based.
Assay [1] addresses Vasopressin V2 receptor (Rattus norvegicus) (UniProt Q00788). Briefly: Effective dose was determined for Vasopressin V2 receptor antagonistic activity in vivo in anesthetized rats. The class given is functional, organism-based.
Assay [2] has the same target. Briefly: Selectivity ratio of antidiuretic Vasopressin V2 receptor ED /[…] receptor ED. The note with it: Urine.
The target in assay [3] is Vasopressin V1 receptor (Rattus norvegicus) (UniProt P48974+P30560). Briefly: Effective dose was determined for Vasopressin V1 receptor antagonistic activity in vivo in anesthetized rats. The class given is functional, organism-based.
Vasopressin V1 receptor (Rattus norvegicus), sequence (P30560 whole entry, looked up): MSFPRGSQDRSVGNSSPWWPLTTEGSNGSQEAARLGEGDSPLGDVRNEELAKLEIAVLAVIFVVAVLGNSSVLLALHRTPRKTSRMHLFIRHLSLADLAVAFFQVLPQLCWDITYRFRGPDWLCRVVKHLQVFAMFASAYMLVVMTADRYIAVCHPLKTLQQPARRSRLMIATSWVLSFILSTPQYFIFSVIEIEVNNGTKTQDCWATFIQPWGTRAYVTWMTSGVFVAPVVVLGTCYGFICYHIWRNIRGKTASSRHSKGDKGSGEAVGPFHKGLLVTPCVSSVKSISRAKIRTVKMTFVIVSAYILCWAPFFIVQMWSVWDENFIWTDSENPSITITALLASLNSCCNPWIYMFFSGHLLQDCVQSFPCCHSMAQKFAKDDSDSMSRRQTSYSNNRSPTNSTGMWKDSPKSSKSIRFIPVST
Vasopressin V1 receptor (Rattus norvegicus), sequence (P48974 whole entry, looked up): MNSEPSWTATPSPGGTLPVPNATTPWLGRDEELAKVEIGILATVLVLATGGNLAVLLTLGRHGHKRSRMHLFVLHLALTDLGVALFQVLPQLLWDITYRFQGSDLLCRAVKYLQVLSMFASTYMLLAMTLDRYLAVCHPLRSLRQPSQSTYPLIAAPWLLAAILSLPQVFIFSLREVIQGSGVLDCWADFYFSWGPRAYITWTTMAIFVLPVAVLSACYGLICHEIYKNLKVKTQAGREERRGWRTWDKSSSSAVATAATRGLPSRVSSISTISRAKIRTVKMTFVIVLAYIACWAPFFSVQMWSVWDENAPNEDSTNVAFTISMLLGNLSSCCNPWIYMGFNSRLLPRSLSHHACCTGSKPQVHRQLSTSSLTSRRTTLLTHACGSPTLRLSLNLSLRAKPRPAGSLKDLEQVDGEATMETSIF

Vasopressin V2 receptor (Rattus norvegicus), sequence (Q00788 whole entry): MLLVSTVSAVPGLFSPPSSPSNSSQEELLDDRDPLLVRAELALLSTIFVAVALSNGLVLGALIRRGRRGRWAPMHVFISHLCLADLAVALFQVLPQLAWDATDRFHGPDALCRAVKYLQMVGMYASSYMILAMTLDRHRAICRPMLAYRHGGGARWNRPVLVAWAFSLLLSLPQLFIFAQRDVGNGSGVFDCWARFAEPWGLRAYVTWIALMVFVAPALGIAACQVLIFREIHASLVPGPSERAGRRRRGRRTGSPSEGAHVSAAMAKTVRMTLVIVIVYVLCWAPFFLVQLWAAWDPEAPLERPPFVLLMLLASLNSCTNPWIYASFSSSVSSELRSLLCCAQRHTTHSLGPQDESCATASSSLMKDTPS
Vasopressin V2 receptor, sequence (Q00788 whole entry): as above

Consider `NCCCC[C@H](NC(=O)[C@H](CC(N)=O)NC(=O)[C@H](CCC(N)=O)NC(=O)[C@H](Cc1ccccc1)NC(=O)[C@@H](Cc1ccc(O)cc1)NC(=O)Cc1ccccc1)C(=O)N1CCC[C@H]1C(=O)N[C@@H](CCCN=C(N)N)C(N)=O`, for which, at Vasopressin V2 receptor, the Kb is 63.1 nM. In addition, the pA2 on Vasopressin V1 receptor was 8.91.
With `CCOc1ccc(C[C@@H](NC(=O)CC23CC4CC(CC(C4)C2)C3)C(=O)N[C@@H](Cc2ccccc2)C(=O)N[C@H](C(=O)N[C@@H](CC(N)=O)C(=O)N[C@@H](CCCN)C(=O)N2CCC[C@@H]2C(=O)N[C@@H](CCCN=C(N)N)C(=O)N[C@@H](CCCN=C(N)N)C(N)=O)C(C)C)cc1`, the Effective dose turned out to be 0.9 nM/kg in assay [1] and 1.6 nM/kg in assay [3]. The Ratio in assay [2] was 0.6.
On to `CCOc1ccc(C[C@H]2NC(=O)CC3(CCCCC3)SSC[C@H](C(=O)N3CCC[C@H]3C(=O)N[C@@H](CCCN=C(N)N)C(=O)NCC(N)=O)NC(=O)[C@@H](CC(N)=O)NC(=O)[C@H](C(C)C)NC(=O)[C@@H](Cc3ccccc3)NC2=O)cc1`, for which the Effective dose in assay [1] turned out to be 1.1 nM/kg; in assay [3], 0.45 nM/kg. Further, the pA2 on Vasopressin V1 receptor is on record as 8.22.
As for `CCOc1ccc(C[C@@H](NC(=O)CC23CC4CC(CC(C4)C2)C3)C(=O)N[C@@H](Cc2ccccc2)C(=O)N[C@H](C(=O)N[C@@H](CC(N)=O)C(=O)N[C@@H](CCCCN)C(=O)N2CCC[C@H]2C(=O)N[C@@H](CCCN=C(N)N)C(N)=O)C(C)C)cc1`, the Kb at Vasopressin V2 receptor is 15.5 nM. The compound further registered a pA2 on Vasopressin V1 receptor of 8.02.
Turning to `CCOc1ccc(C[C@@H](NC(=O)CC23CC4CC(CC(C4)C2)C3)C(=O)N[C@@H](Cc2ccccc2)C(=O)N[C@H](C(=O)N[C@@H](CC(N)=O)C(=O)N[C@@H](CCCN=C(N)N)C(=O)N2CCC[C@@H]2C(=O)N[C@@H](CCCN=C(N)N)C(N)=O)C(C)C)cc1`, the values for the Effective dose in assay [1] and in assay [3] were 1.4 nM/kg and 0.66 nM/kg, respectively. The Ratio in assay [2] stood at 2.1.
With `CCOc1ccc(C[C@@H](NC(=O)Cc2ccccc2)C(=O)N[C@@H](Cc2ccccc2)C(=O)N[C@H](C(=O)N[C@@H](CC(N)=O)C(=O)N[C@@H](CCCN)C(=O)N2CCC[C@H]2C(=O)N[C@@H](CCCN=C(N)N)C(=O)N[C@@H](CCCN=C(N)N)C(N)=O)C(C)C)cc1`, on Vasopressin V2 receptor, the Kb is about 58.9 nM. This compound showed a pA2 at Vasopressin V1 receptor of 8.39.
Turning to `CCOc1ccc(C[C@@H](NC(=O)CC(C)(C)C)C(=O)N[C@@H](Cc2ccccc2)C(=O)N[C@@H](CCC(N)=O)C(=O)N[C@@H](CC(N)=O)C(=O)N[C@@H](CCCCN)C(=O)N2CCC[C@@H]2C(=O)N[C@@H](CCCN=C(N)N)C(N)=O)cc1`, the Effective dose in assay [1] was over 410 nM/kg; in assay [3], 0.27 nM/kg. For the same compound, the Ratio in assay [2] is over 1500.
The corresponding values for `CCOc1ccc(C[C@@H](NC(=O)Cc2ccccc2)C(=O)N[C@@H](Cc2ccccc2)C(=O)N[C@H](C(=O)N[C@@H](CC(N)=O)C(=O)N[C@@H](CCCCN)C(=O)N2CCC[C@@H]2C(=O)N[C@@H](CCCN=C(N)N)C(N)=O)C(C)C)cc1` are 2.9 nM/kg, 0.11 nM/kg and 26.
The corresponding values for `CCOc1ccc(C[C@@H](NC(=O)CC23CC4CC(CC(C4)C2)C3)C(=O)N[C@@H](Cc2ccccc2)C(=O)N[C@H](C(=O)N[C@@H](CC(N)=O)C(=O)N[C@@H](CCCCN)C(=O)N2CCC[C@@H]2C(=O)N[C@@H](CCCN=C(N)N)C(=O)N[C@@H](CCCN=C(N)N)C(N)=O)C(C)C)cc1` are 1.4 nM/kg, 0.5 nM/kg and 2.8.
The corresponding values for `COc1ccc(C[C@@H](NC(=O)Cc2ccccc2)C(=O)N[C@@H](Cc2ccccc2)C(=O)N[C@@H](CCC(N)=O)C(=O)N[C@@H](CC(N)=O)C(=O)N[C@@H](CCCCN)C(=O)N2CCC[C@@H]2C(=O)N[C@@H](CCCN=C(N)N)C(N)=O)cc1` are over 24 nM/kg, 0.083 nM/kg and over 290.
Consider `CC(C)[C@H](NC(=O)[C@H](Cc1ccccc1)NC(=O)[C@@H](Cc1ccc(O)cc1)NC(=O)Cc1ccccc1)C(=O)N[C@@H](CC(N)=O)C(=O)N[C@@H](CCCN=C(N)N)C(=O)N1CCC[C@@H]1C(=O)N[C@@H](CCCN=C(N)N)C(=O)N[C@@H](CCCN=C(N)N)C(N)=O`, for which the Effective dose in assay [3] is 0.16 nM/kg.
For `CCOc1ccc(C[C@@H](NC(=O)CC23CC4CC(CC(C4)C2)C3)C(=O)N[C@@H](Cc2ccccc2)C(=O)N[C@H](C(=O)N[C@@H](CC(N)=O)C(=O)N[C@@H](CCCN)C(=O)N2CCC[C@@H]2C(=O)N[C@@H](CCCN=C(N)N)C(N)=O)C(C)C)cc1`, the values for the Effective dose in assay [1] and in assay [3] were 1.1 nM/kg and 3.2 nM/kg, respectively. Also, the Ratio in assay [2] was 0.3.
For `NCCCC[C@H](NC(=O)[C@H](CC(N)=O)NC(=O)[C@H](CCC(N)=O)NC(=O)[C@H](Cc1ccccc1)NC(=O)[C@@H](Cc1ccc(O)cc1)NC(=O)Cc1ccccc1)C(=O)N1CCC[C@@H]1C(=O)N[C@@H](CCCN=C(N)N)C(N)=O`, in that order: 5 nM/kg, 0.085 nM/kg and 59.
For the compound `COc1ccc(C[C@@H](NC(=O)Cc2ccccc2)C(=O)N[C@@H](Cc2ccccc2)C(=O)N[C@H](C(=O)N[C@@H](CC(N)=O)C(=O)N[C@@H](CCCCN)C(=O)N2CCC[C@@H]2C(=O)N[C@@H](CCCN=C(N)N)C(N)=O)C(C)C)cc1`, the Effective dose in assay [1] was 6 nM/kg; in assay [3], 0.17 nM/kg. Besides, the Ratio in assay [2] was determined as 35.
For `CCOc1ccc(C[C@H]2NC(=O)CC3(CCCCC3)SSC[C@H](C(=O)N3CCC[C@H]3C(=O)N[C@@H](CCCN=C(N)N)C(N)=O)NC(=O)[C@@H](CC(N)=O)NC(=O)[C@H](C(C)C)NC(=O)[C@@H](Cc3ccccc3)NC2=O)cc1`, in that order: 1.5 nM/kg, 0.45 nM/kg and 3.3.
`CC(C)[C@H](NC(=O)[C@H](Cc1ccccc1)NC(=O)[C@@H](Cc1ccc(O)cc1)NC(=O)CC12CC3CC(CC(C3)C1)C2)C(=O)N[C@@H](CC(N)=O)C(=O)N[C@@H](CCCN=C(N)N)C(=O)N1CCC[C@@H]1C(=O)N[C@@H](CCCN=C(N)N)C(=O)N[C@@H](CCCN=C(N)N)C(N)=O`: the Effective dose in assay [1] stood at 1.7 nM/kg. The Ratio in assay [2] stood at 4.3.
Take `CCOc1ccc(C[C@@H](NC(=O)CC(C)(C)C)C(=O)N[C@@H](Cc2ccccc2)C(=O)N[C@H](C(=O)N[C@@H](CC(N)=O)C(=O)N[C@@H](CCCCN)C(=O)N2CCC[C@@H]2C(=O)N[C@@H](CCCN=C(N)N)C(N)=O)C(C)C)cc1`: the Effective dose in assay [1] was over 7 nM/kg; in assay [3], 0.17 nM/kg. The Ratio in assay [2] came to 41.
At Vasopressin V1 receptor, `CC(C)[C@H](NC(=O)[C@H](Cc1ccccc1)NC(=O)[C@@H](Cc1ccc(O)cc1)NC(=O)Cc1ccccc1)C(=O)N[C@@H](CC(N)=O)C(=O)N[C@@H](CCCN=C(N)N)C(=O)N1CCC[C@H]1C(=O)N[C@@H](CCCN=C(N)N)C(=O)N[C@@H](CCCN=C(N)N)C(N)=O` had a pA2 of 8.62.
With `CCOc1ccc(C[C@@H](NC(=O)Cc2ccccc2)C(=O)N[C@@H](Cc2ccccc2)C(=O)N[C@H](C(=O)N[C@@H](CC(N)=O)C(=O)N[C@@H](CCCN)C(=O)N2CCC[C@@H]2C(=O)N[C@@H](CCCN=C(N)N)C(=O)N[C@@H](CCCN=C(N)N)C(N)=O)C(C)C)cc1`, the figures for the Effective dose in assay [1] and in assay [3] were 4 nM/kg and 0.29 nM/kg, respectively. Also, in assay [2], the Ratio was determined as 14.
For `CCOc1ccc(C[C@@H](NC(=O)CC23CC4CC(CC(C4)C2)C3)C(=O)N[C@@H](Cc2ccccc2)C(=O)N[C@H](C(=O)N[C@@H](CC(N)=O)C(=O)N[C@@H](CCCN=C(N)N)C(=O)N2CCC[C@@H]2C(=O)N[C@@H](CCCN=C(N)N)C(=O)N[C@@H](CCCN=C(N)N)C(N)=O)C(C)C)cc1`, in that order: 0.71 nM/kg, 0.5 nM/kg and 1.4.
For `CCOc1ccc(C[C@@H](NC(=O)Cc2ccccc2)C(=O)N[C@@H](Cc2ccccc2)C(=O)N[C@@H](CCC(N)=O)C(=O)N[C@@H](CC(N)=O)C(=O)N[C@@H](CCCCN)C(=O)N2CCC[C@@H]2C(=O)N[C@@H](CCCN=C(N)N)C(N)=O)cc1`, the Effective dose in assay [1] was 40 nM/kg; in assay [3], 0.07 nM/kg. The Ratio in assay [2] stood at 570.
Consider `CCOc1ccc(C[C@@H](NC(=O)CC23CC4CC(CC(C4)C2)C3)C(=O)N[C@@H](Cc2ccccc2)C(=O)N[C@H](C(=O)N[C@@H](CC(N)=O)C(=O)N[C@@H](CCCCN)C(=O)N2CCC[C@@H]2C(=O)N[C@@H](CCCN=C(N)N)C(N)=O)C(C)C)cc1`, for which the Effective dose was found to be 1.1 nM/kg in assay [1] and 0.66 nM/kg in assay [3]. The Ratio in assay [2] stood at 1.7.
In the case of `CCOc1ccc(C[C@@H](NC(=O)CC(C)(C)C)C(=O)N[C@@H](Cc2ccccc2)C(=O)N[C@H](C(=O)N[C@@H](CC(N)=O)C(=O)NCCCC(=O)N2CCC[C@@H]2C(=O)N[C@@H](CCCN=C(N)N)C(=O)N[C@@H](CCCN=C(N)N)C(N)=O)C(C)C)cc1`, the Effective dose in assay [1] is 0.83 nM/kg; in assay [3] it was 0.71 nM/kg. The Ratio in assay [2] was 1.2.
For `CCOc1ccc(C[C@@H](NC(=O)Cc2ccccc2)C(=O)N[C@@H](Cc2ccccc2)C(=O)N[C@H](C(=O)N[C@@H](CC(N)=O)C(=O)N[C@@H](CCCCN)C(=O)N2CCC[C@@H]2C(=O)N[C@@H](CCCN=C(N)N)C(=O)N[C@@H](CCCN=C(N)N)C(N)=O)C(C)C)cc1`, in that order: 9.8 nM/kg, 0.24 nM/kg and 41.
As for `CCOc1ccc(C[C@@H](NC(=O)CC23C[C@H]4C[C@@H](C2)C[C@@H](C3)C4)C(=O)N[C@@H](Cc2ccccc2)C(=O)N[C@H](C(=O)N[C@@H](CC(N)=O)C(=O)NCCCC(=O)N2CCC[C@@H]2C(=O)N[C@@H](CCCN=C(N)N)C(=O)N[C@@H](CCCN=C(N)N)C(N)=O)C(C)C)cc1`, the Effective dose in assay [1] amounted to 0.53 nM/kg; in assay [3], 1.2 nM/kg. Further, the Ratio in assay [2] came to 0.44.
The corresponding values for `CCOc1ccc(C[C@@H](NC(=O)Cc2ccccc2)C(=O)N[C@@H](Cc2ccccc2)C(=O)N[C@H](C(=O)N[C@@H](CC(N)=O)C(=O)NCCCC(=O)N2CCC[C@@H]2C(=O)N[C@@H](CCCN=C(N)N)C(=O)N[C@@H](CCCN=C(N)N)C(N)=O)C(C)C)cc1` are 0.69 nM/kg, 0.26 nM/kg and 2.7.

A word on the pA2: it is the negative logarithm of the molar antagonist concentration that doubles the agonist concentration needed for the same response.
